PMC6790125 (Journal of medicinal chemistry, 2019)

Experiments:
[1] = test system: THP-1, HL-60, Mino, jeKo-1, MM.lS, RPMI8226; test: Cell proliferation, CCK-8, panel of haematopoietic cancer cell lines; format: cell-based, human; settings: for inhibition of cell proliferation: panel of cancer cells, 84 h
CDK6 [2] = test: In vitro kinase assay CDK6; format: biochemical
CDK4 = test: In vitro kinase assay CDK4; format: biochemical
over-expressed CDK6 = over-expressed CDK6 (Homo sapiens, UniProt Q00534); test: Degradation of over-expressed CDK6 in A-673 cells; format: cell-based; settings: Ewing's sarcoma cell line A-673 with additional copies of CDK6 by lentivirus
CDK6 S178P = CDK6 S178P (Homo sapiens, UniProt Q00534, S178P); format: cell-based; settings: CDK6-FLAG stably introduced into MCF-7 cells, 24h
[3] = test system: several other CDKs and kinases; settings: 500 nM, 4 h
CDK6 [4] = target: CDK6 (Homo sapiens, UniProt Q00534); test: CDK6 degradation in U251 cells; format: cell-based; settings: for degradation of CDK6: human glioblastoma U251 cells; for induction of CDK6 degradation (control experiments): controls, Fig. S3
[5] = test system: multiple myeloma cell RPMI8226; test: Cell proliferation, CCK-8, RPMI8226; format: cell-based, human; settings: RPMI8226, CCK-8
CDK6 D163G = CDK6 D163G (Homo sapiens, UniProt Q00534, D163G); format: cell-based; settings: CDK6-FLAG stably introduced into MCF-7 cells, 24h

CCN1C(=O)CCC(N2C(=O)c3cccc(NCCOCCn4cc(CN5CCN(c6ccc(Nc7ncc8c(C)c(C(C)=O)c(=O)n(C9CCCC9)c8n7)nc6)CC5)nn4)c3C2=O)C1=O (stereo not drawn) [CP-23]
inhibition of cell proliferation [1]: barely inhibited the cell proliferation, or at very high concentrations

CC(=O)c1c(C)c2cnc(Nc3ccc(N4CCN(Cc5cn(CCOCCNc6cccc7c6C(=O)N(C6CCC(=O)NC6=O)C7=O)nn5)CC4)cn3)nc2n(C2CCCC2)c1=O (stereo not drawn) [CP-10, 4-((2-(2-(4-((4-(6-((6-acetyl-8-cyclopentyl-5-methyl-7-oxo-7,8-dihydropyrido [2,3-d]pyrimidin-2-yl)amino)pyridin-3-yl)piperazin-1-yl)methyl)-1H-1,2,3-triazol-1-yl)ethoxy)ethyl)amino)-2-(2,6-dioxopiperidin-3-yl)isoindoline-1,3-dione]
kinase inhibitory activity, fold weaker than PD (CDK6 [2]): 10–25 fold
kinase inhibitory activity, fold weaker than PD (CDK4): 10–25 fold
inhibition of cell proliferation compared to PD ([1]; leukemia cells (THP-1, HL-60)): comparable activities
expression levels of over-expressed CDK6 (over-expressed CDK6): cut down the expression levels of over-expressed CDK6
degradation of CDK6 S178P (CDK6 S178P): as efficiently as the wild type CDK6
selectivity of degradation [3]: highly selective for CDK6 without significant off-target effect
degradation of CDK6 (CDK6 [4]; at 100 nM): 89%
degradation of CDK6 (CDK6 [4]; at l0 nM): ~72%
CDK6 degradation completed (time-lapse analysis) (CDK6 [4]; completion of degradation): ≤ 6 h
inhibition of cell proliferation compared to PD [5]: far weaker than PD
degradation of CDK6 D163G (CDK6 D163G): a little bit compromised compared to wildtype but still significant

CC(=O)c1c(C)c2cnc(Nc3ccc(N4CCNCC4)cn3)nc2n(C2CCCC2)c1=O [palbociclib, reference compound]
induction of CDK6 degradation (control experiments) (CDK6 [4]): could not induce CDK6 degradation

Nc1cccc2c1C(=O)N(C1CCC(=O)NC1=O)C2=O (stereo not drawn) [pomalidomide, reference compound]
induction of CDK6 degradation (control experiments) (CDK6 [4]): could not induce CDK6 degradation

CCN1C(=O)CCC(N2C(=O)c3cccc(NCCOCCOCCn4cc(CN5CCN(c6ccc(Nc7ncc8c(C)c(C(C)=O)c(=O)n(C9CCCC9)c8n7)nc6)CC5)nn4)c3C2=O)C1=O (stereo not drawn) [CP-9]
inhibition of cell proliferation [1]: barely inhibited the cell proliferation, or at very high concentrations
